Measured values as given in article PMC9375521 (Protein Science : A Publication of the Protein Society, 2022).

Target: SARS‐CoV‐2 nsp10–nsp16 complex (Severe acute respiratory syndrome coronavirus 2, UniProt P0DTD1)
Assay: nsp10–nsp16 radiometric MTase assay, IC50 determination
Type: biochemical

In the case of `Nc1ncnc2c1ncn2[C@@H]1O[C@H](CSCC[C@H](N)C(=O)O)[C@@H](O)[C@H]1O` [SAH, S‐adenosylhomocysteine], the IC50 is reported as 2200 ± 200 nM and the Hill slope (radiometric assay, mean ± SD, N = 3) is reported as 0.6 ± 0.1.
